Assay results published in patent publication US9790173B2, “Alpha-7 nicotinic acetylcholine receptor modulators and uses thereof-I” (MERCK SHARP & DOHME CORP., priority 2012, dated 2017).

What was measured:
rat α7 nAChRs = molecular target: T1, rat α7 nAChRs (Rattus norvegicus, UniProt Q05941); test: Automated planar patch clamp (Patchliner) electrophysiology, α7 nAChR PAM activity; format: cell-based; set-up: key to Type I or Type II: I: Type 1 predominately affects the peak current; Type II modulators affect the peak current and also delay the desensitization of the receptor; details: for Type I or Type II: modulator type based on the electrophysiology trace; for activation at 3 µM: GH4-C1, 3 μM compound in the presence of acetylcholine, GH4C1 cells expressing rat α7 nAChRs, peak current, read-out: Peak potentiation at 3 μM compound
T1 construct: expressed in transfected cells; host or cells: GH4C1 cells (rat pituitary line) stably expressing α7 nAChR
T1 sequence (Q05941 23-502): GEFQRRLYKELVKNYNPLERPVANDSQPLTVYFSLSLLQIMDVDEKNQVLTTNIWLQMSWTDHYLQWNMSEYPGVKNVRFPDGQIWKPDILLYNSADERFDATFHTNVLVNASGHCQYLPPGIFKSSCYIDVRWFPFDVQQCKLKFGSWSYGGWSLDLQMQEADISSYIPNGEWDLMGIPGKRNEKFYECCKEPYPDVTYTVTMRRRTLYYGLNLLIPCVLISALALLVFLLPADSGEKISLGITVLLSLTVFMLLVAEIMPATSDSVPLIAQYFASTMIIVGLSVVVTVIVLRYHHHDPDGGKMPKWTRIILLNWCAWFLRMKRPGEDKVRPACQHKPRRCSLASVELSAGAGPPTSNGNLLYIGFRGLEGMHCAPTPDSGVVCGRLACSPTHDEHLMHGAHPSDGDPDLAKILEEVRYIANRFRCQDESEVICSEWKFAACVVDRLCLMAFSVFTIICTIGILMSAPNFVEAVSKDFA
Method: Tested compounds were prepared by serial dilutions of 10 mM stock solution in DMSO to concentrations of the compound 1000 times higher than its final concentration. The DMSO stock solutions were then diluted 1:100 in the recording buffer bringing DMSO concentration to 1%. These intermediate solutions were further diluted 10 times with buffer to obtain final concentrations and lower DMSO concentration to 0.1%. […]
Compounds of the invention may be evaluated by electrophysiology using a Patchliner® (Nanion Technologies GmbH, Germany), an automated planar patch-clamp platform of medium throughput was used as a first step in electrophysiological assessment of α7 nAChR positive allosteric modulators (PAMs).
Briefly, intracellular (KCl—50 mM, NaCl—10 mM, KF—60 mM, EGTA—20 mM, HEPES—10 mM, pH—7.2, 285 mOsmol) and extracellular (NaCl—140 mM, KCl—4 mM, CaCl2—2 mM, MgCl2—1 mM, HEPES—10 mM, D-Glucose—5 mM, pH—7.4, 298 mOsmol) solutions were automatically pipetted onto NPC-16 chip (medium resistance ˜2.5-2.6 MΩ). Suspension of GH4C1 cells expressing rat α7 nAChRs was introduced in 4 wells of a medium resistance chip and suction was applied to attract cells in the holes. The extracellular solution was subsequently exchanged to high calcium solution (NaCl—80 mM, KCl—3 mM, CaCl2—45 mM, HEPES—10 mM, pH—7.4, 298 mOsmol) followed by gigaohm seal formation and obtaining whole-cell configuration. The rest of protocol was carried out in the high-calcium recording solution. Holding potential was −70 mV throughout the protocol. A control response to 60 or 100 μM of ACh was obtained first. Next, a cell was pre-incubated with compound of interest at 3 μM for ˜30 s after which the compound was co-applied with acetylcholine.
Amplitude of the responses was measured in HEKA Patchmaster software (HEKA Elektronik, Germany) and percentage of potentiation calculated. Recording was repeated […] a minimum of two replicates had been obtained per compound.
Compounds shown in Table 1 were evaluated by automated planar patch clamp on the Patchliner® as described in Example P2.1. […] The compounds are designated either as Type I or Type II modulators based on the electrophysiology trace. Type 1 predominately affects the peak current. Type II modulators affect the peak current and also delay the desensitization of the receptor.

Compound | Type I or Type II (rat α7 nAChRs) | activation at 3 µM (rat α7 nAChRs) | melting point
COc1ccc(Cl)cc1NC[C@@H]1[C@@H](c2ccc(S(N)(=O)=O)cc2)C1(C)C [Example 4, ±trans 4-(3-{[(5-chloro-2-methoxyphenyl)amino]methyl}-2,2-dimethylcyclopropyl)benzenesulfonamide] | II | – | –
CC1(C)[C@H](CNc2ccccc2)[C@H]1c1ccc(S(N)(=O)=O)cc1 [Example 5, ±trans 4-{2,2-dimethyl-3-[(phenylamino)methyl]cyclopropyl}benzenesulfonamide] | II | – | –
CN(C[C@@H]1[C@@H](c2ccc(S(N)(=O)=O)cc2)C1(C)C)c1ccccc1 [Example 6, ±trans 4-(2,2-dimethyl-{[methyl(phenyl)amino]methyl}cyclopropyl)benzenesulfonamide] | I | 506% | –
COc1ccc(Cl)cc1N(C)C[C@@H]1[C@@H](c2ccc(S(N)(=O)=O)cc2)C1(C)C [Example 7, ±trans 4-(3-{[(5-chloro-2-methoxyphenyl)(methyl)amino]methyl}-2,2-dimethylcyclopropyl)benzenesulfonamide] | I | 134% | –
COc1ccc(Cl)cc1NC[C@@H]1[C@@H](c2ccc(S(N)(=O)=O)cc2)C12CCCC2 [Example 8, ±trans 4-(2-{[(5-chloro-2-methoxyphenyl)amino]methyl}spiro[2.4]hept-1-yl)benzenesulfonamide] | II | – | –
COc1ccc(NC[C@@H]2[C@@H](c3ccc(S(N)(=O)=O)cc3)C23CCCC3)c(OC)n1 [Example 9, ±trans 4-(2-{[(2,6-dimethoxypyridin-3-yl)amino]methyl}spiro[2.4]hept-1-yl)benzenesulfonamide] | II | – | 56 to 58 °C
CC1(C)[C@H](CNc2cncc(F)c2)[C@H]1c1ccc(S(N)(=O)=O)cc1 [Example 10, ±trans 4-[3-{[(5-fluoropyridin-3-yl)amino]methyl}-2,2-dimethylcyclopropyl]benzenesulfonamide] | II | – | –
CC1(C)[C@H](CNc2ccnc(C(F)(F)F)c2)[C@H]1c1ccc(S(N)(=O)=O)cc1 [Example 11, ±trans 4-[2,2-dimethyl-3-({[2-(trifluoromethyl)pyridin-4-yl]amino}methyl)cyclopropyl]benzenesulfonamide] | II | 15% | –
NS(=O)(=O)c1ccc([C@H]2C[C@@H]2CNc2ccc(C(F)(F)F)cn2)cc1 [Example 12, ±trans 4-[2-({[5-(trifluoromethyl)pyridin-2-yl]amino}methyl)cyclopropyl]benzenesulfonamide] | I | 401% | –
CC1(C)[C@H](CNc2ccc(F)c(F)c2)[C@H]1c1ccc(S(N)(=O)=O)cc1 [Example 14, ±trans 4-[3-{[(3,4-difluorophenyl)amino]methyl}-2,2-dimethylcyclopropyl]benzenesulfonamide] | II | – | –
CC1(C)[C@H](CNc2ccc(F)cc2C(F)(F)F)[C@H]1c1ccc(S(N)(=O)=O)cc1 [Example 15, 4-[(1R,3R)-3-({[4-fluoro-2-(trifluoromethyl)phenyl]amino}methyl)-2,2-dimethylcyclopropyl]benzenesulfonamide] | I | 413% | –
CC1(C)[C@H](CNc2cc(F)ccc2OCC(F)(F)F)[C@H]1c1ccc(S(N)(=O)=O)cc1 [Example 16, 4-[(1R,3R)-3-({[5-fluoro-2-(2,2,2-trifluoroethoxy)phenyl]amino}methyl)-2,2-dimethylcyclopropyl]benzenesulfonamide] | I | 236% | –
NS(=O)(=O)c1ccc([C@@H]2C[C@H]2CNc2ccc(F)cc2)cc1 [Example 18, 4-[(1R,2R)-2-{[(4-fluorophenyl)amino]methyl}cyclopropyl]benzenesulfonamide] | I | – | –
NS(=O)(=O)c1ccc([C@@H]2C[C@H]2CNc2ccc(C(F)(F)F)cn2)cc1 [Example 19, 4-[(1R,2R)-2-({[5-(trifluoromethyl)pyridin-2-yl]amino}methyl)cyclopropyl]benzenesulfonamide] | I | 762% | –
Cc1ccc(Cl)cc1NC[C@@H]1[C@@H](c2ccc(S(N)(=O)=O)cc2)C1(C)C [Example 22, ±trans 4-[3-{[(5-chloro-2-methylphenyl)amino]methyl}-2,2-dimethylcyclopropyl]benzenesulfonamide] | II | – | 60 to 62 °C
COc1ccc(F)cc1NC[C@@H]1[C@@H](c2ccc(S(N)(=O)=O)cc2)C1(C)C [Example 23, ±trans 4-[3-{[(5-fluoro-2-methoxyphenyl)amino]methyl}-2,2-dimethylcyclopropyl]benzenesulfonamide] | II | – | 164 to 166 °C
COc1ccccc1NC[C@@H]1[C@@H](c2ccc(S(N)(=O)=O)cc2)C1(C)C [Example 25, ±trans 4-[3-{[(2-methoxyphenyl)amino]methyl}-2,2-dimethylcyclopropyl]benzenesulfonamide] | II | – | –
CC1(C)[C@H](CNc2cccc(N3CCOCC3)c2)[C@H]1c1ccc(S(N)(=O)=O)cc1 [Example 26, ±trans 4-[2,2-dimethyl-3-({[3-(morpholin-4-yl)phenyl]amino}methyl)cyclopropyl]benzenesulfonamide] | II | 455% | –
Cc1ccc(F)cc1NC[C@@H]1[C@@H](c2ccc(S(N)(=O)=O)cc2)C1(C)C [Example 29, 4-[(1R,3R)-3-{[(5-fluoro-2-methylphenyl)amino]methyl}-2,2-dimethylcyclopropyl]benzenesulfonamide] | I | 456% | –
Cc1ccc(F)cc1NC[C@H]1[C@H](c2ccc(S(N)(=O)=O)cc2)C1(C)C [Example 31, 4-[(1S,3S)-3-{[(5-fluoro-2-methylphenyl)amino]methyl}-2,2-dimethylcyclopropyl]benzenesulfonamide] | II | – | –
Cc1cc(F)c(F)cc1NC[C@H]1[C@H](c2ccc(S(N)(=O)=O)cc2)C1(C)C [Example 32, 4-[(1S,3S)-3-{[(4,5-difluoro-2-methylphenyl)amino]methyl}-2,2-dimethylcyclopropyl]benzenesulfonamide] | II | – | –
CCc1ccc(F)cc1NC[C@H]1[C@H](c2ccc(S(N)(=O)=O)cc2)C1(C)C [Example 39, ±trans 4-[3-{[(2-ethyl-5-fluorophenyl)amino]methyl}-2,2-dimethylcyclopropyl]benzenesulfonamide] | II | – | –
CC1(C)[C@@H](CNc2cc(OC(F)(F)F)ccc2F)[C@@H]1c1ccc(S(N)(=O)=O)cc1 [Example 40, ±trans 4-[3-({[2-fluoro-5-(trifluoromethoxy)phenyl]amino}methyl)-2,2-dimethylcyclopropyl]benzenesulfonamide] | II | 309% | –
CC1(C)[C@@H](CNc2cc(F)ccc2OC(F)(F)F)[C@@H]1c1ccc(S(N)(=O)=O)cc1 [Example 41, ±trans 4-[3-({[5-fluoro-2-(trifluoromethoxy)phenyl]amino}methyl)-2,2-dimethylcyclopropyl]benzenesulfonamide] | I | – | –
COc1ccc(Cl)cc1NC[C@@H]1[C@@H](c2ccc(-c3ccccc3O)cc2)C1(C)C [Example 43, ±trans 4′-[3-{[(5-chloro-2-methoxyphenyl)amino]methyl}-2,2-dimethylcyclopropyl]biphenyl-2-ol] | I | 100% | –
CCOc1ccccc1NC[C@@H]1[C@@H](c2ccc(S(N)(=O)=O)cc2)C1(C)C [Example 44, ±trans 4-[3-{[(2-ethoxyphenyl)amino]methyl}-2,2-dimethylcyclopropyl]benzenesulfonamide] | I | – | –
COc1ccc(Cl)cc1NC[C@@H]1[C@@H](c2ccc(S(=O)(=O)NO)cc2)C1(C)C [Example 55, ±trans 4-[3-{[(5-chloro-2-methoxyphenyl)amino]methyl}-2,2-dimethylcyclopropyl]-N-hydroxybenzenesulfonamide] | I | 724% | –
COc1ccc(Cl)cc1NC[C@@H]1[C@@H](c2ccc(S(=O)(=O)NN)cc2)C1(C)C [Example 56, ±trans 4-[3-{[(5-chloro-2-methoxyphenyl)amino]methyl}-2,2-dimethylcyclopropyl]benzenesulfonohydrazide] | I | 131% | –
